Data reported in article PMC3609652 (The Biochemical journal, 2013).

Legend:
[1] = molecular target: IgE^DNP (monoclonal anti-DNP IgE); experiment: tryptophan fluorescence quenching titration with monovalent hapten; format: binding
[2] = molecular target: IgE^dansyl (monoclonal anti-dansyl IgE, clone 27–74); experiment: as above; format: binding

DNP
Kd [1]: 22 ± 2 nM

dansyl
Kd [2]: 54 ± 4 nM
